From PubChem BioAssay (NCI)
Values joined by “and” are separate entries in the source; they are usually repeats but may differ in a detail not shown here. Equal entries are not always repeated.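 In this assay, cells in 96-well plates receive the compound at five concentrations for 48 hours. Endpoints are linearly interpolated between the surrounding concentrations. GI50 marks 50% less growth. TGI is the concentration that stops growth completely.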

Assays:
Assay in all cases: DTP human tumour cell line panel, 48 h
[1] = tested on: SK-OV-3 ovarian
[2] = tested on: TK-10 renal
[3] = tested on: KM12 colon
[4] = tested on: 786-0 renal
[5] = tested on: UO-31 renal
[6] = tested on: HCT-15 colon
[7] = tested on: NCI-H460 lung
[8] = tested on: OVCAR-5 ovarian
[9] = tested on: SF-539 CNS
[10] = tested on: NCI/ADR-RES ovarian

SMILES	GI50 [1]	TGI [1]	GI50 [2]	TGI [2]	GI50 [3]	TGI [3]	GI50 [4]	TGI [4]	GI50 [5]	TGI [5]	GI50 [6]	TGI [6]	GI50 [7]	TGI [7]	GI50 [8]	TGI [8]	GI50 [9]	TGI [9]	GI50 [10]	TGI [10]
C/C(=N\NC(=S)N1CCCC1)c1ccccn1	0.0232 µM	11.2 µM	0.105 µM	13.7 µM	< 0.01 µM	15.2 µM	0.047 µM	11 µM	< 0.011 µM	3.18 µM	< 0.01 µM	18.9 µM	< 0.01 µM	7.06 µM	0.0763 µM	14.8 µM	< 0.0265 µM	3.08 µM	< 0.01 µM	10.6 µM
Cc1c(-c2ccc(-c3ccccc3F)cc2)nc2ccc(F)cc2c1C(=O)O	> 41.2 µM	86.5 µM and 603 µM	62.7 µM	208 µM and 471 µM	0.645 µM and 0.889 µM	109 µM and 198 µM	0.5 µM	97.7 µM and 291 µM	1.85 µM and 2.65 µM	78.9 µM and 105 µM	0.0764 µM and 0.5 µM	114 µM and 153 µM	0.349 µM and 0.5 µM	80.9 µM and 174 µM	–	209 µM and 371 µM	0.0959 µM and 0.5 µM	25.6 µM and 110 µM and 29.9 µM	8.96 µM and 17.2 µM	170 µM and 377 µM
COc1cc(N)c(Cl)cc1C(=O)N[C@@H]1CCN(CCCOc2ccc(F)cc2)C[C@@H]1OC	> 100 µM	> 100 µM	> 100 µM	> 100 µM	33.3 µM	> 100 µM	55.5 µM	> 100 µM	27.9 µM	> 100 µM	23.6 µM	> 100 µM	66.9 µM	> 100 µM	> 100 µM	> 100 µM	66.2 µM	> 100 µM	> 100 µM	> 100 µM
CCOC(=O)C(Cc1cc(OC)c(CC(C(=O)OCC)C(=O)OCC)cc1OC)C(=O)OCC	–	> 100 µM	–	> 100 µM	–	> 100 µM	–	> 100 µM	–	> 100 µM	–	> 100 µM	–	> 100 µM	–	> 100 µM	–	> 100 µM	–	> 100 µM
CC(C)(C)OC(=O)NCCCCCCCCCCCCn1c2c(c3ccccc3c1=O)C(=O)c1ccccc1-2	22.9 µM	74.1 µM	19.1 µM	45.5 µM	> 100 µM	> 100 µM	18.3 µM	50.6 µM	> 100 µM	> 100 µM	> 100 µM	> 100 µM	> 100 µM	> 100 µM	75.9 µM	> 100 µM	20.6 µM	61.9 µM	51.2 µM	> 100 µM
CC(=O)c1nc(-c2ccc(C[C@@H](CNC(=O)CN(C)C)NC(=O)c3ccc(OC(C)C)c(Cl)c3)cc2)cn1C	0.0346 µM	16.1 µM	12.1 µM	25 µM	0.0662 µM	21.1 µM	0.0851 µM	17.1 µM	0.723 µM	17.6 µM	0.0899 µM	19.3 µM	0.0291 µM	11.8 µM	0.0618 µM	18.6 µM	0.0341 µM	3.03 µM	0.511 µM	18.3 µM
COC1CCC(OC)C(c2nc3sccn3c2/C=N/N=C(N)N)C1 (stereo unspecified)	47.1 µM	> 100 µM	> 52.1 µM	> 81.4 µM	16 µM	40.2 µM	19.7 µM	47 µM	> 67.5 µM	> 100 µM	> 100 µM	> 100 µM	27.7 µM	> 76.5 µM	2.84 µM	> 51.7 µM	20.4 µM	44 µM	> 100 µM	> 100 µM
CN(Cc1cnc2nc(N)nc(N)c2n1)c1c(Cl)cc(C(=O)NC(CCC(=O)O)C(=O)O)cc1Cl (stereo unspecified)	0.807 µM	> 100 µM	1.88 µM	> 100 µM	< 0.0137 µM	> 100 µM	< 0.01 µM	> 100 µM	< 0.01 µM	> 100 µM	< 0.01 µM	> 100 µM	< 0.01 µM	> 100 µM	1.76 µM	> 100 µM	< 0.01 µM	> 100 µM	< 0.01 µM	> 100 µM
CC(C)C(Br)C(=O)NCC(=O)O (stereo unspecified)	–	> 100 µM	–	> 100 µM	–	> 100 µM	–	> 100 µM	–	> 100 µM	–	> 100 µM	–	> 100 µM	–	> 100 µM	–	> 100 µM	–	> 100 µM
CC(=O)/C(=N\N=C(N)N)c1ccccc1	–	> 100 µM	–	> 100 µM	–	> 100 µM	–	> 100 µM	–	> 100 µM	–	> 100 µM	–	> 100 µM	–	> 100 µM	–	> 100 µM	–	> 100 µM
COc1ccc2c(c1)[n+](=O)c(/C=C/C(=O)c1cc(OC)c(OC)c(OC)c1)c(C)n2[O-]	23.9 µM	92.8 µM	8.74 µM	> 100 µM	14.4 µM	60.5 µM	13.7 µM	50.3 µM	3.57 µM	> 100 µM	3.79 µM	23.2 µM	13.3 µM	45.5 µM	28.7 µM	> 100 µM	15.7 µM	38.8 µM	11.3 µM	39.5 µM
CCOC1=C/C(=N\Nc2ccc([N+](=O)[O-])cc2)CCC1	–	> 100 µM	–	> 100 µM	–	> 100 µM	–	> 100 µM	–	35.1 µM	–	57.3 µM	–	> 100 µM	–	> 100 µM	–	> 100 µM	–	> 100 µM
O=C(CC1(O)CCCCC1)OC1CCCC1	–	> 100 µM	–	> 100 µM	–	> 100 µM	–	> 100 µM	–	> 100 µM	–	> 100 µM	–	> 100 µM	–	> 100 µM	–	> 100 µM	–	> 100 µM
CCS(=O)(=O)c1cccc(-c2cc(C(=O)NC3CCN(C)CC3)c(C)c3[nH]c4ncc(C)cc4c23)c1	0.624 µM and 0.771 µM	4.31 µM and 7.31 µM	1.71 µM and 1.44 µM	> 8.01 µM and 6.7 µM	0.0954 µM and 0.0478 µM	1.51 µM and 1.86 µM	1.68 µM and 1.32 µM	> 8.05 µM and 4.7 µM	> 5.3 µM and 6.65 µM	> 10 µM and 26.4 µM	13.6 µM	> 10 µM and 45.8 µM	0.201 µM and 0.0843 µM	4.96 µM and 1.64 µM	0.463 µM and 0.34 µM	> 9.67 µM and 11.4 µM	0.329 µM and 0.239 µM	1.92 µM and 1.39 µM	44.9 µM	> 100 µM
COc1ccc2c(CN3CCCC[C@H]3O)cc3cc4c(cc3c2c1)OCO4	0.275 µM	0.961 µM	0.702 µM	6.97 µM	0.48 µM	5.22 µM	0.503 µM	6.28 µM	0.31 µM	5.67 µM	0.369 µM	10.6 µM	0.295 µM	10.4 µM	0.489 µM	14.1 µM	0.375 µM	1.83 µM	0.435 µM	6.94 µM
Fc1ccc(-c2ncn(C3CCNCC3)c2-c2ccnc(Oc3ccc(Cl)cc3)n2)cc1	3.88 µM	8.12 µM	3.97 µM	7.97 µM	4.51 µM	8.79 µM	4.54 µM	10.8 µM	3.38 µM	12.2 µM	4.24 µM	9.46 µM	3.79 µM	7.49 µM	5.09 µM	14.9 µM	4.2 µM	8.39 µM	6.03 µM	> 22.7 µM
C=C(CN1CCN(c2ccccn2)CC1)c1ccc(C(=O)Nc2ccccc2N)cc1	1.3 µM	4.44 µM	1.85 µM	8.23 µM	0.936 µM	3.12 µM	1.2 µM	8.15 µM	1.8 µM	7.57 µM	1.91 µM	> 50 µM	2.81 µM	> 50 µM	6.1 µM	26.4 µM	1.5 µM	8.87 µM	1.31 µM	5.05 µM
CCOC(=O)c1sc(NC(=O)COc2ccc(/C=C3\CCc4cc(OC)ccc4C3=O)cc2)nc1C	18.7 µM	45.3 µM	3.34 µM	21.4 µM	7.13 µM	21.5 µM	11.5 µM	24.7 µM	1.78 µM	9.64 µM	7.96 µM	21.1 µM	14.3 µM	28.7 µM	8.97 µM	24.6 µM	11.7 µM	23.9 µM	8.49 µM	37.5 µM
CN1C2C=CC(=O)C1C(C#N)C2 (stereo unspecified)	–	> 100 µM	–	> 100 µM	–	> 100 µM	16.3 µM and 51.7 µM	35.5 µM and > 100 µM	19.1 µM and 39.8 µM	39 µM and > 100 µM	–	73.5 µM and > 100 µM	–	> 100 µM	–	15.7 µM and > 100 µM	–	84 µM and > 100 µM	–	> 100 µM
Cc1nc(C(=O)OCc2ccccc2)cc(OCc2ccccc2)c1C	> 89 µM	> 100 µM	50.4 µM	> 100 µM	29 µM	> 87.6 µM	21.2 µM	50.9 µM	18.3 µM	39 µM	18.6 µM	> 60.6 µM	22.7 µM	54.5 µM	21.8 µM	51.6 µM	18.1 µM	35.2 µM	14.1 µM	37.4 µM
CC(C)(O)c1cc(Nc2cc(Oc3cn(C4CC4)nc3C3CCOCC3)ccn2)ccn1	> 100 µM	> 100 µM	69.8 µM	> 100 µM	> 100 µM	> 100 µM	53.1 µM	> 100 µM	54 µM	> 100 µM	> 100 µM	> 100 µM	> 100 µM	> 100 µM	> 100 µM	> 100 µM	> 100 µM	> 100 µM	> 100 µM	> 100 µM
O=C1C=C(NCCc2ccccc2)c2ccccc2C1=O	–	27 µM	–	27.3 µM	–	8.72 µM	–	16.6 µM	–	11.4 µM	–	3.6 µM	–	3.18 µM	–	3.39 µM	–	4.46 µM	–	23 µM
CN(C)CCN=c1nc2c(c(N)n1-c1ccccc1)c(=S)n(-c1ccccc1)c(=S)n2-c1ccccc1	6.96 µM	20.9 µM	2.36 µM	10.1 µM	3.8 µM	14.2 µM	1.33 µM	3.93 µM	1.48 µM	3.83 µM	1.17 µM	3.73 µM	2.33 µM	6.29 µM	9.95 µM	25.5 µM	1.68 µM	3.29 µM	10.4 µM	26.7 µM
C=C1C(=O)O[C@@H]2C[C@@H](C)[C@@H]3C=CC(=O)[C@@]3(C)[C@@H](OC(=O)CCCC(=O)O[C@H]3[C@@H]4C(=C)C(=O)O[C@@H]4C[C@@H](C)[C@@H]4C=CC(=O)[C@]43C)[C@H]12	–	3.8 µM	–	0.296 µM	–	0.662 µM	–	0.0448 µM	–	0.289 µM	–	0.112 µM	–	0.955 µM	–	0.387 µM	–	0.185 µM	–	4.12 µM
Cn1cc(-c2csc(-c3ccc(Cl)cc3)n2)c2cccnc21	15.9 µM	39.2 µM	12.4 µM	31.1 µM	13 µM	27.6 µM	16.3 µM	32.4 µM	13.6 µM	38.6 µM	12.2 µM	29.3 µM	16 µM	34.4 µM	14.2 µM	32.7 µM	14.8 µM	29.5 µM	15.8 µM	34.4 µM
C=C(CN1CCc2ccccc2C1)c1ccc(CCCC(=O)Nc2ccccc2N)cc1	19.4 µM	52.9 µM	41.3 µM	> 100 µM	11.1 µM	27.2 µM	12.1 µM	28.2 µM	2.7 µM	17.7 µM	28 µM	> 100 µM	> 100 µM	> 100 µM	26.5 µM	80.2 µM	11.4 µM	24 µM	17.4 µM	51.6 µM
OC(Cc1cccc2ccccc12)CN1CCC(c2ccccc2)CC1 (stereo unspecified)	–	31.3 µM	–	28.1 µM	–	33.7 µM	–	28.3 µM	–	0.176 µM	–	30.4 µM	–	28.4 µM	–	27.7 µM	–	31.1 µM	–	28.5 µM
CSC(=S)NCc1cn(C)c2ccccc12	30.2 µM	> 100 µM	28.7 µM	> 100 µM	33.1 µM	> 100 µM	24.8 µM	> 100 µM	22.3 µM	> 100 µM	26.8 µM	> 100 µM	29.4 µM	> 100 µM	44.1 µM	> 100 µM	25 µM	62.3 µM	30 µM	> 100 µM
